# Assay: recombinant UMI read abundance after kanamycin selection (control-corrected) (log10(CPM+1)); higher = more efficient recombination; extreme values may be limits of the assay; sequences stand for … in AGTGCAGAGAAAATCGGCCAGTTTTCTCTGCCTGCAGTCCGCATGCCGTGGGACCCCTTGGGTTCTAACCTGTTGCCTAGATTTATGCAGCGGACTGCCTTTCTCCCAAAGTGATAAACCGG…AGGTTGGTTTCACT; site = the 11-nt donor
# In short: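 The measure is log10(CPM+1) for recombinant UMIs. These were PCR-amplified across the donor–target junction and sequenced after Escherichia coli carrying a donor and donor-binding-loop pair library and a target plasmid with T7-inducible IS621 bridge recombinase was plated on IPTG (0.07 mM) plus kanamycin or unselected. CPM were averaged over two replicates and scaled by control-derived factors.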
# 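Also: IS621 bridge recombinase in Escherichia coli cells against a fixed T5 target plasmid.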
row,Sequence,recombinant UMI read abundance (log10)
1,GGAGAGGCATGGACCGGTTTTCCCGGTAATCCGTATTTGGT (site GGAGAGGCTAC),0.00324
2,GGAGAGGCATGGACCGGTTTTCCCGGTAATCCGTATTTGGT (site GGAGCGGCTAC),0.00751
3,GGAGAGGCATGGACCGGTTTTCCCGGTAATCCGTATTTGGT (site GGAGGGGCTAC),0.0239
4,GGAGAGGCATGGACCGGTTTTCCCGGTAATCCGTATTTGGT (site GGAGTGGCTAC),0.0204
5,GGAGATCCATGGACCGGTTTTCCCGGTAATCCGTATTTGCA (site GGAGATCCTTG),0
6,GGAGATTCATGGACCGGTTTTCCCGGTAATCCGTATTTGTT (site GAAGATTCTAA),0
7,GGAGATTCATGGACCGGTTTTCCCGGTAATCCGTATTTGTT (site GCAGATTCTAA),0
8,GGAGATTCATGGACCGGTTTTCCCGGTAATCCGTATTTGTT (site GGAGATTCTAA),2.52
9,GGAGATTCATGGACCGGTTTTCCCGGTAATCCGTATTTGTT (site GTAGATTCTAA),0
10,GGAGCTTCATGGACCGGTTTTCCCGGTAATCCGTATTTGGC (site GGAGCTTCTGC),1.5
11,GGAGGACCATGGACCGGTTTTCCCGGTAATCCGTATTTGGG (site AGAGGACCTCC),0
12,GGAGGACCATGGACCGGTTTTCCCGGTAATCCGTATTTGGG (site CGAGGACCTCC),0.0177
13,GGAGGACCATGGACCGGTTTTCCCGGTAATCCGTATTTGGG (site GGAGGACCTCC),0.00471
14,GGAGGACCATGGACCGGTTTTCCCGGTAATCCGTATTTGGG (site TGAGGACCTCC),0.00615
15,GGAGGTTCATGGACCGGTTTTCCCGGTAATCCGTATTTGAT (site GGAGGTTCTAT),1.87
16,GGAGTAGCATGGACCGGTTTTCCCGGTAATCCGTATTTGTC (site GGAGTAGCTGA),1.98
17,GGAGTGGCATGGACCGGTTTTCCCGGTAATCCGTATTTGAT (site GGAGTGGCTAA),0.00289
18,GGAGTGGCATGGACCGGTTTTCCCGGTAATCCGTATTTGAT (site GGAGTGGCTAC),0.0174
19,GGAGTGGCATGGACCGGTTTTCCCGGTAATCCGTATTTGAT (site GGAGTGGCTAG),0
20,GGAGTGGCATGGACCGGTTTTCCCGGTAATCCGTATTTGAT (site GGAGTGGCTAT),1.87
21,GGAGTGGCATGGACCGGTTTTCCCGGTAATCCGTATTTGTT (site GGAGTGGCTAA),1.06
22,GGAGTGGCATGGACCGGTTTTCCCGGTAATCCGTATTTGTT (site GGAGTGGCTAC),0.00283
23,GGAGTGGCATGGACCGGTTTTCCCGGTAATCCGTATTTGTT (site GGAGTGGCTAG),1.76
24,GGAGTGGCATGGACCGGTTTTCCCGGTAATCCGTATTTGTT (site GGAGTGGCTAT),0.767
25,GGATAAACATGGACCGGTTTTCCCGGTAATCCGTATTTGCC (site GGATAAACTGG),2.49

row,Sequence,recombinant UMI read abundance (log10)
1,GGATAAACATGGACCGGTTTTCCCGGTAATCCGTATTTGCC (site GGATACACTGG),1.01
2,GGATAAACATGGACCGGTTTTCCCGGTAATCCGTATTTGCC (site GGATAGACTGG),0
3,GGATAAACATGGACCGGTTTTCCCGGTAATCCGTATTTGCC (site GGATATACTGG),0
4,GGATACACATGGACCGGTTTTCCCGGTAATCCGTATTTGCC (site GGATAAACTGG),0
5,GGATACACATGGACCGGTTTTCCCGGTAATCCGTATTTGCC (site GGATACACTGG),2.97
6,GGATACACATGGACCGGTTTTCCCGGTAATCCGTATTTGCC (site GGATAGACTGG),0
7,GGATACACATGGACCGGTTTTCCCGGTAATCCGTATTTGCC (site GGATATACTGG),0
8,GGATAGACATGGACCGGTTTTCCCGGTAATCCGTATTTGCA (site GGATAGACTAG),0.763
9,GGATAGACATGGACCGGTTTTCCCGGTAATCCGTATTTGCA (site GGATAGACTCG),0.831
10,GGATAGACATGGACCGGTTTTCCCGGTAATCCGTATTTGCA (site GGATAGACTGG),0.112
11,GGATAGACATGGACCGGTTTTCCCGGTAATCCGTATTTGCA (site GGATAGACTTG),2.79
12,GGATAGACATGGACCGGTTTTCCCGGTAATCCGTATTTGCG (site GGATAGACTAG),2.19
13,GGATAGACATGGACCGGTTTTCCCGGTAATCCGTATTTGCG (site GGATAGACTCG),2.55
14,GGATAGACATGGACCGGTTTTCCCGGTAATCCGTATTTGCG (site GGATAGACTGG),1.52
15,GGATAGACATGGACCGGTTTTCCCGGTAATCCGTATTTGCG (site GGATAGACTTG),2.13
16,GGCAAGACATGGACCGGTTTTCCCGGTAATCCGTATTTGCA (site AGGAAGACTTG),0
17,GGCAAGACATGGACCGGTTTTCCCGGTAATCCGTATTTGCA (site GGCAAGACTTG),2.62
18,GGCAATCCATGGACCGGTTTTCCCGGTAATCCGTATTTGAG (site GGCAATCCTAT),0
19,GGCAATCCATGGACCGGTTTTCCCGGTAATCCGTATTTGAG (site GGCAATCCTCT),0.41
20,GGCAATCCATGGACCGGTTTTCCCGGTAATCCGTATTTGAG (site GGCAATCCTGT),0
21,GGCAATCCATGGACCGGTTTTCCCGGTAATCCGTATTTGAG (site GGCAATCCTTT),0.0105
22,GGCAATCCATGGACCGGTTTTCCCGGTAATCCGTATTTGGA (site GGCAATCCTTA),0
23,GGCAATCCATGGACCGGTTTTCCCGGTAATCCGTATTTGGA (site GGCAATCCTTC),0
24,GGCAATCCATGGACCGGTTTTCCCGGTAATCCGTATTTGGA (site GGCAATCCTTG),0
25,GGCAATCCATGGACCGGTTTTCCCGGTAATCCGTATTTGGA (site GGCAATCCTTT),0.00891

row,Sequence,recombinant UMI read abundance (log10)
1,GGCACGACATGGACCGGTTTTCCCGGTAATCCGTATTTGCG (site GGCACGACTCG),0.903
2,GGCACGCCATGGACCGGTTTTCCCGGTAATCCGTATTTGTA (site GACACGCCTTA),0.00602
3,GGCACGCCATGGACCGGTTTTCCCGGTAATCCGTATTTGTA (site GCCACGCCTTA),0.006
4,GGCACGCCATGGACCGGTTTTCCCGGTAATCCGTATTTGTA (site GGCACGCCTTA),0.523
5,GGCACGCCATGGACCGGTTTTCCCGGTAATCCGTATTTGTA (site GTCACGCCTTA),0.00471
6,GGCACGTCATGGACCGGTTTTCCCGGTAATCCGTATTTGTT (site GGAACGTCTAA),0.027
7,GGCACGTCATGGACCGGTTTTCCCGGTAATCCGTATTTGTT (site GGCACGTCTAA),0.595
8,GGCACGTCATGGACCGGTTTTCCCGGTAATCCGTATTTGTT (site GGGACGTCTAA),0.00471
9,GGCACGTCATGGACCGGTTTTCCCGGTAATCCGTATTTGTT (site GGTACGTCTAA),0.0192
10,GGCAGAGCATGGACCGGTTTTCCCGGTAATCCGTATTTGAG (site GGCAGAGCTCT),1.67
11,GGCCAAACATGGACCGGTTTTCCCGGTAATCCGTATTTGAC (site GGCCAAACTGT),1.73
12,GGCCACCCATGGACCGGTTTTCCCGGTAATCCGTATTTGTA (site GGCCACCCTAA),0.0187
13,GGCCACCCATGGACCGGTTTTCCCGGTAATCCGTATTTGTA (site GGCCACCCTCA),0.014
14,GGCCACCCATGGACCGGTTTTCCCGGTAATCCGTATTTGTA (site GGCCACCCTGA),0
15,GGCCACCCATGGACCGGTTTTCCCGGTAATCCGTATTTGTA (site GGCCACCCTTA),0.081
16,GGCCACCCATGGACCGGTTTTCCCGGTAATCCGTATTTGTG (site GGCCACCCTAA),0.00884
17,GGCCACCCATGGACCGGTTTTCCCGGTAATCCGTATTTGTG (site GGCCACCCTCA),0.00742
18,GGCCACCCATGGACCGGTTTTCCCGGTAATCCGTATTTGTG (site GGCCACCCTGA),0
19,GGCCACCCATGGACCGGTTTTCCCGGTAATCCGTATTTGTG (site GGCCACCCTTA),0.0265
20,GGCCACGCATGGACCGGTTTTCCCGGTAATCCGTATTTGTT (site GGCCACACTAA),0.148
21,GGCCACGCATGGACCGGTTTTCCCGGTAATCCGTATTTGTT (site GGCCACCCTAA),0.023
22,GGCCACGCATGGACCGGTTTTCCCGGTAATCCGTATTTGTT (site GGCCACGCTAA),0.96
23,GGCCACGCATGGACCGGTTTTCCCGGTAATCCGTATTTGTT (site GGCCACTCTAA),0.0156
24,GGCCATCCATGGACCGGTTTTCCCGGTAATCCGTATTTGAA (site GGCAATCCTTT),0.00447
25,GGCCATCCATGGACCGGTTTTCCCGGTAATCCGTATTTGAA (site GGCCATCCTTT),0.00888
